The values that follow are results of earlier work, collected in US20090197893A1 (Bristol-Myers Squibb Company, priority 2005, published 2009).

Read-outs that look alike come from different tables or passages of the source.

Data set [1] relates to imatinib-resistant BCR-ABL mutants. The conditions noted are these: cited from earlier work.
Another data set deals with wild-type BCR-ABL. The conditions noted are these: cited from earlier work.
For another data set, the system named is CML patients. The conditions noted are these: cited from earlier work; for patients who developed resistance to imatinib: 4 years of follow-up.

As a reminder, the IC50 is the midpoint of a concentration-inhibition curve. On to `Cc1cn(-c2cc(NC(=O)c3ccc(C)c(Nc4nccc(-c5cccnc5)n4)c3)cc(C(F)(F)F)c2)cn1` [AMN107], for which, in data set [1], the “imatinib-resistant BCR-ABL mutants against which significantly active” value is listed as 32/33. Moreover, the 50% inhibitory concentration (IC50) in the data set with wild-type BCR-ABL is […].
Take `Cc1ccc(NC(=O)c2ccc(CN3CCN(C)CC3)cc2)cc1Nc1nccc(-c2cccnc2)n1` [imatinib]: the “patients who developed resistance to imatinib” value in the data set with CML patients (AP CML patients) was 75%; with CML patients (BC patients) it was 95%. Besides, the “estimated 2-year incidence of resistance” value is reported as 80% with CML patients (blastic phase) and 10% with CML patients (chronic phase post-interferon-α failure).
